Reference: US10517889B2, “Modulators of SMAD7 expression” (Ionis Pharmaceuticals, Inc., priority 2017, dated 2019)
Strand notation (5' to 3'): a small letter for the sugar, then the base; units joined by * are phosphorothioate-linked, units joined directly phosphodiester-linked; [ ] holds rarer units or linkages, { } end groups; capitals alone tell only the bases. k = constrained ethyl (cEt); [5mC] = 5-methylcytosine; d = 2'-deoxy (DNA)

Each substance was assayed on human SMAD7 mRNA (assay: Antisense inhibition of human SMAD7 mRNA expression in Hep3B cells by 3-10-3 cEt gapmers, 10,000 nM, electroporation (Example 2)). Settings: Hep3B cells, electroporation with 10,000 nM antisense oligonucleotide, approximately 24 hours, primer probe set RTS5062, relative to untreated control cells.
Assay type: cell-based
How it was run: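 Percent inhibition of SMAD7 mRNA, relative to untreated cells, after ~24 h exposure of electroporated Hep3B cells to 10,000 nM cEt gapmer; levels by qRT-PCR, corrected for total RNA.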
“798992 (antisense kA*k[5mC]*kT*d[5mC]*d[5mC]*dT*dG*dA*d[5mC]*dA*dA*dG*dT*kG*kA*kA) [compound 798992]” was tested, and the “% inhibition of SMAD7 mRNA expression” value was 29%. “798993 (antisense k[5mC]*kA*k[5mC]*dA*d[5mC]*dT*d[5mC]*d[5mC]*dT*dG*dA*d[5mC]*dA*kA*kG*kT) [compound 798993]” was tested, and the “% Inhibition” value was 37%. For “798994 (antisense kA*k[5mC]*kA*d[5mC]*dA*d[5mC]*dA*d[5mC]*dT*d[5mC]*d[5mC]*dT*dG*kA*k[5mC]*kA) [compound 798994]”, the “% Inhibition” value was 0%. In the case of “798995 (antisense kA*k[5mC]*kT*d[5mC]*dA*d[5mC]*dA*d[5mC]*dT*d[5mC]*dA*d[5mC]*dA*k[5mC]*kA*k[5mC]) [compound 798995]”, the “% Inhibition” value is reported as 0%. For “798996 (antisense k[5mC]*kA*k[5mC]*dA*d[5mC]*dT*d[5mC]*dA*d[5mC]*dA*d[5mC]*dT*d[5mC]*kA*k[5mC]*kA) [compound 798996]”, the “% Inhibition” value was 49%. With “798997 (antisense kG*k[5mC]*kA*d[5mC]*dA*d[5mC]*dT*d[5mC]*dA*d[5mC]*dA*d[5mC]*dT*k[5mC]*kA*k[5mC]) [compound 798997]” the “% Inhibition” value was 12%. “798998 (antisense k[5mC]*kG*k[5mC]*dA*d[5mC]*dA*d[5mC]*dT*d[5mC]*dA*d[5mC]*dA*d[5mC]*kT*k[5mC]*kA) [compound 798998]” was tested, and the “% Inhibition” value was 13%. With “798999 (antisense k[5mC]*k[5mC]*kG*d[5mC]*dA*d[5mC]*dA*d[5mC]*dT*d[5mC]*dA*d[5mC]*dA*k[5mC]*kT*k[5mC]) [compound 798999]” the “% Inhibition” value was 17%. “799000 (antisense kG*k[5mC]*k[5mC]*dG*d[5mC]*dA*d[5mC]*dA*d[5mC]*dT*d[5mC]*dA*d[5mC]*kA*k[5mC]*kT) [compound 799000]” was tested, and the “% Inhibition” value was 42%. “799001 (antisense k[5mC]*kA*kG*d[5mC]*d[5mC]*dG*d[5mC]*dA*d[5mC]*dA*d[5mC]*dT*d[5mC]*kA*k[5mC]*kA) [compound 799001]” was tested, and the “% Inhibition” value was 37%. With “799002 (antisense kA*k[5mC]*kA*dG*d[5mC]*d[5mC]*dG*d[5mC]*dA*d[5mC]*dA*d[5mC]*dT*k[5mC]*kA*k[5mC]) [compound 799002]” the “% Inhibition” value was 15%. For “799003 (antisense kA*k[5mC]*kA*d[5mC]*dA*dG*d[5mC]*d[5mC]*dG*d[5mC]*dA*d[5mC]*dA*k[5mC]*kT*k[5mC]) [compound 799003]”, the “% inhibition of SMAD7 mRNA expression” value was 0%. “799004 (antisense kG*k[5mC]*kA*d[5mC]*dA*d[5mC]*dA*d[5mC]*dA*dG*d[5mC]*d[5mC]*dG*k[5mC]*kA*k[5mC]) [compound 799004]” was tested, and the “% inhibition of SMAD7 mRNA expression” value was 0%. With “799005 (antisense k[5mC]*kG*kT*dG*d[5mC]*dA*d[5mC]*dA*d[5mC]*dA*d[5mC]*dA*dG*k[5mC]*k[5mC]*kG) [compound 799005]” the “% inhibition of SMAD7 mRNA expression” value was 0%. “799006 (k[5mC]*kG*k[5mC]*dT*d[5mC]*d[5mC]*dT*dG*d[5mC]*dA*d[5mC]*dA*d[5mC]*kG*k[5mC]*kG; antisense) [compound 799006]” was tested, and the “% inhibition of SMAD7 mRNA expression” value was 0%. For “799007 (kT*kG*k[5mC]*d[5mC]*dG*d[5mC]*dT*d[5mC]*d[5mC]*dT*dG*d[5mC]*dA*k[5mC]*kA*k[5mC]; antisense) [compound 799007]”, the “% inhibition of SMAD7 mRNA expression” value was 47%. With “799008 (k[5mC]*k[5mC]*kA*dT*d[5mC]*dT*dG*d[5mC]*d[5mC]*dG*d[5mC]*dT*d[5mC]*k[5mC]*kT*kG; antisense) [compound 799008]” the “% inhibition of SMAD7 mRNA expression” value was 60%. “799009 (kT*k[5mC]*k[5mC]*d[5mC]*d[5mC]*dA*dT*d[5mC]*dT*dG*d[5mC]*d[5mC]*dG*k[5mC]*kT*k[5mC]; antisense) [compound 799009]” was tested, and the “% inhibition of SMAD7 mRNA expression” value was 62%. For “799010 (k[5mC]*kG*kT*dT*dG*dT*d[5mC]*dT*d[5mC]*d[5mC]*d[5mC]*d[5mC]*dA*kT*k[5mC]*kT; antisense) [compound 799010]”, the “% inhibition of SMAD7 mRNA expression” value was 57%. “799011 (k[5mC]*kA*kA*dA*dA*d[5mC]*dA*dA*dA*dG*dA*dG*d[5mC]*kA*k[5mC]*kG; antisense) [compound 799011]” was tested, and the “% inhibition of SMAD7 mRNA expression” value was 35%. With “799012 (kA*kT*kA*dA*dG*dA*dG*dA*d[5mC]*dA*d[5mC]*dA*dA*kA*kA*k[5mC]; antisense) [compound 799012]” the “% inhibition of SMAD7 mRNA expression” value was 43%. In the case of “799013 (kT*k[5mC]*k[5mC]*dA*dT*dA*dA*dG*dA*dG*dA*d[5mC]*dA*k[5mC]*kA*kA; antisense) [compound 799013]”, the “% Inhibition” value is reported as 37%. In the case of “799014 (kA*k[5mC]*kA*dT*d[5mC]*d[5mC]*dA*dT*dA*dA*dG*dA*dG*kA*k[5mC]*kA; antisense) [compound 799014]”, the “% Inhibition” value is reported as 29%. “799015 (kG*kG*kG*dA*d[5mC]*dA*dT*d[5mC]*d[5mC]*dA*dT*dA*dA*kG*kA*kG; antisense) [compound 799015]” was tested, and the “% Inhibition” value was 25%. In the case of “799016 (k[5mC]*kA*kA*dA*d[5mC]*d[5mC]*dT*d[5mC]*dT*d[5mC]*dT*dG*d[5mC]*kT*kG*kG; antisense) [compound 799016]”, the “% Inhibition” value is reported as 30%. With “799017 (kT*kG*k[5mC]*dA*dA*dA*d[5mC]*d[5mC]*dT*d[5mC]*dT*d[5mC]*dT*kG*k[5mC]*kT; antisense) [compound 799017]” the “% Inhibition” value was 0%. In the case of “799018 (k[5mC]*kT*kG*d[5mC]*dA*dA*dA*d[5mC]*d[5mC]*dT*d[5mC]*dT*d[5mC]*kT*kG*k[5mC]; antisense) [compound 799018]”, the “% Inhibition” value is reported as 29%. “799019 (kA*k[5mC]*kT*dG*d[5mC]*dA*dA*dA*d[5mC]*d[5mC]*dT*d[5mC]*dT*k[5mC]*kT*kG; antisense) [compound 799019]” was tested, and the “% Inhibition” value was 36%. For “799020 (kG*kA*k[5mC]*dT*dG*d[5mC]*dA*dA*dA*d[5mC]*d[5mC]*dT*d[5mC]*kT*k[5mC]*kT; antisense) [compound 799020]”, the “% Inhibition” value was 48%. “799021 (kG*kG*kA*d[5mC]*dT*dG*d[5mC]*dA*dA*dA*d[5mC]*d[5mC]*dT*k[5mC]*kT*k[5mC]; antisense) [compound 799021]” was tested, and the “% Inhibition” value was 62%. “799022 (kG*kG*kG*dA*d[5mC]*dT*dG*d[5mC]*dA*dA*dA*d[5mC]*d[5mC]*kT*k[5mC]*kT; antisense) [compound 799022]” was tested, and the “% Inhibition” value was 61%. With “799023 (kT*kG*kG*dG*dA*d[5mC]*dT*dG*d[5mC]*dA*dA*dA*d[5mC]*k[5mC]*kT*k[5mC]; antisense) [compound 799023]” the “% inhibition of SMAD7 mRNA expression” value was 42%. “799024 (k[5mC]*kT*kT*dG*dG*dG*dA*d[5mC]*dT*dG*d[5mC]*dA*dA*kA*k[5mC]*k[5mC]; antisense) [compound 799024]” was tested, and the “% inhibition of SMAD7 mRNA expression” value was 0%. With “799025 (k[5mC]*kG*k[5mC]*dT*dT*dG*dG*dG*dA*d[5mC]*dT*dG*d[5mC]*kA*kA*kA; antisense) [compound 799025]” the “% inhibition of SMAD7 mRNA expression” value was 10%. For “799026 (k[5mC]*k[5mC]*kG*d[5mC]*dT*dT*dG*dG*dG*dA*d[5mC]*dT*dG*k[5mC]*kA*kA; antisense) [compound 799026]”, the “% inhibition of SMAD7 mRNA expression” value was 1%. “799027 (kA*k[5mC]*k[5mC]*dG*d[5mC]*dT*dT*dG*dG*dG*dA*d[5mC]*dT*kG*k[5mC]*kA; antisense) [compound 799027]” was tested, and the “% inhibition of SMAD7 mRNA expression” value was 46%. With “799028 (kA*kG*kA*d[5mC]*dA*d[5mC]*d[5mC]*dG*d[5mC]*dT*dT*dG*dG*kG*kA*k[5mC]; antisense) [compound 799028]” the “% inhibition of SMAD7 mRNA expression” value was 37%. In the case of “799029 (kG*kG*kA*dG*dA*dG*dA*d[5mC]*dA*d[5mC]*d[5mC]*dG*d[5mC]*kT*kT*kG; antisense) [compound 799029]”, the “% inhibition of SMAD7 mRNA expression” value is reported as 0%. With “799030 (kG*k[5mC]*kA*dG*dG*dA*dG*dA*dG*dA*d[5mC]*dA*d[5mC]*k[5mC]*kG*k[5mC]; antisense) [compound 799030]” the “% inhibition of SMAD7 mRNA expression” value was 52%. With “799031 (kT*kG*k[5mC]*d[5mC]*dT*d[5mC]*dT*dG*d[5mC]*d[5mC]*d[5mC]*d[5mC]*dA*k[5mC]*kT*kG; antisense) [compound 799031]” the “% inhibition of SMAD7 mRNA expression” value was 46%. With “799032 (kA*kG*kG*dT*dA*d[5mC]*dT*dG*d[5mC]*d[5mC]*dT*d[5mC]*dT*kG*k[5mC]*k[5mC]; antisense) [compound 799032]” the “% inhibition of SMAD7 mRNA expression” value was 42%. In the case of “799033 (k[5mC]*k[5mC]*k[5mC]*dA*dG*dG*dT*dA*d[5mC]*dT*dG*d[5mC]*d[5mC]*kT*k[5mC]*kT; antisense) [compound 799033]”, the “% Inhibition” value is reported as 35%. For “799034 (k[5mC]*kT*kT*dG*d[5mC]*d[5mC]*d[5mC]*dA*dG*dG*dT*dA*d[5mC]*kT*kG*k[5mC]; antisense) [compound 799034]”, the “% Inhibition” value was 12%. For “799035 (k[5mC]*kG*k[5mC]*d[5mC]*dA*dG*d[5mC]*dT*dT*dG*d[5mC]*d[5mC]*d[5mC]*kA*kG*kG; antisense) [compound 799035]”, the “% Inhibition” value was 0%. For “799036 (kA*kG*k[5mC]*d[5mC]*dG*d[5mC]*d[5mC]*dA*dG*d[5mC]*dT*dT*dG*k[5mC]*k[5mC]*k[5mC]; antisense) [compound 799036]”, the “% Inhibition” value was 8%. In the case of “799037 (k[5mC]*k[5mC]*k[5mC]*d[5mC]*dA*dG*d[5mC]*d[5mC]*dG*d[5mC]*d[5mC]*dA*dG*k[5mC]*kT*kT; antisense) [compound 799037]”, the “% Inhibition” value is reported as 9%. For “799038 (kG*kG*kA*d[5mC]*d[5mC]*d[5mC]*d[5mC]*dA*dG*d[5mC]*d[5mC]*dG*d[5mC]*k[5mC]*kA*kG; antisense) [compound 799038]”, the “% Inhibition” value was 19%. For “799039 (kT*kG*k[5mC]*dT*dG*dG*dG*dA*d[5mC]*d[5mC]*d[5mC]*d[5mC]*dA*kG*k[5mC]*k[5mC]; antisense) [compound 799039]”, the “% Inhibition” value was 19%. In the case of “799040 (kA*kG*k[5mC]*dT*dG*d[5mC]*dT*dG*dG*dG*dA*d[5mC]*d[5mC]*k[5mC]*k[5mC]*kA; antisense) [compound 799040]”, the “% Inhibition” value is reported as 51%.
